Assay results as given in ChEMBL document CHEMBL1139627, “A new orally bioavailable dual adenosine A2B/A3 receptor antagonist with therapeutic potential” (Bioorg Med Chem Lett, 2005).

Experiments:
[1] = target: T1, Adenosine receptor A1 (Homo sapiens, UniProt P30542); assay: Displacement of [3H]DPCPX from human adenosine A1 receptors transfected in CHO cells; assay type: cell-based
T1 sequence (P30542 whole entry): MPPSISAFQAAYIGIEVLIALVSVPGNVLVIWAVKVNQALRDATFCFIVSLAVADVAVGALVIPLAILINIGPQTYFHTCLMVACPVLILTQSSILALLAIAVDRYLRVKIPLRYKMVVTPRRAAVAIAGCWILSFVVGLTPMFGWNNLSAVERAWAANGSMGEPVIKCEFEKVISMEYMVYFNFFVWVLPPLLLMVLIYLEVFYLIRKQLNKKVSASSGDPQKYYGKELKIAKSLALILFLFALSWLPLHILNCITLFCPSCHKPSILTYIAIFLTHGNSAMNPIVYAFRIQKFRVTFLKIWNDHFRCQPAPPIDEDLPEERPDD

[2] = target: Adenosine receptor A2a (Homo sapiens, UniProt P29274); assay: Displacement of [3H]ZM-241,385 from human adenosine A2a receptors transfected in HEK 293 cells; assay type: cell-based, HEK293
Adenosine receptor A2a, sequence (P29274 whole entry): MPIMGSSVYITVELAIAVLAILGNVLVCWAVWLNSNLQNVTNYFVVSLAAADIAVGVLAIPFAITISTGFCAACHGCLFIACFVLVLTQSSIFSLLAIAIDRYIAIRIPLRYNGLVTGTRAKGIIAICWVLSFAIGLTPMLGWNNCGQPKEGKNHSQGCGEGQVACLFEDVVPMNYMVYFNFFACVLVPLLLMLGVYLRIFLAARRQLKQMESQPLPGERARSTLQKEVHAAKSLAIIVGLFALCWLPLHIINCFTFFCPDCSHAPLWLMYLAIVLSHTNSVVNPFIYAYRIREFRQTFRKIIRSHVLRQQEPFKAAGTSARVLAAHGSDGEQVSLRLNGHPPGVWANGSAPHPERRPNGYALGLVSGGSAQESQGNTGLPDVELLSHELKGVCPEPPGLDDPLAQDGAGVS

[3] = target: T2, Adenosine receptor A2b (Homo sapiens) (UniProt P29275); assay: Inhibition of luciferase production elicited by NECA by compound in CHO cells transfected with human adenosine A2b receptor and a luciferase expressing reporter plasmid in a reporter gene assay; assay type: cell-based
T2 sequence (whole entry): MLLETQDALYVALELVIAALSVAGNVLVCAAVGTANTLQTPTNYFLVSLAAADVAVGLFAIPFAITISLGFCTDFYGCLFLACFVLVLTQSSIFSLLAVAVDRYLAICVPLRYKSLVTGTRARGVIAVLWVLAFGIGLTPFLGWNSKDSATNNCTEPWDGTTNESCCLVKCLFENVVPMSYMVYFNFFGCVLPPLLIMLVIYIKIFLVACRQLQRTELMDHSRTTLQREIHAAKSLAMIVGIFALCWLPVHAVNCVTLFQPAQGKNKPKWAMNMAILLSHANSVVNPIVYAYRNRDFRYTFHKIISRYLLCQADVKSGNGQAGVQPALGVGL

[4] = target: T3, Adenosine receptor A3 (Homo sapiens, UniProt P0DMS8); assay: Displacement of [125I]-AB-MECA from human adenosine A3 receptors transfected in CHO cells; assay type: cell-based
T3 sequence (P0DMS8 whole entry): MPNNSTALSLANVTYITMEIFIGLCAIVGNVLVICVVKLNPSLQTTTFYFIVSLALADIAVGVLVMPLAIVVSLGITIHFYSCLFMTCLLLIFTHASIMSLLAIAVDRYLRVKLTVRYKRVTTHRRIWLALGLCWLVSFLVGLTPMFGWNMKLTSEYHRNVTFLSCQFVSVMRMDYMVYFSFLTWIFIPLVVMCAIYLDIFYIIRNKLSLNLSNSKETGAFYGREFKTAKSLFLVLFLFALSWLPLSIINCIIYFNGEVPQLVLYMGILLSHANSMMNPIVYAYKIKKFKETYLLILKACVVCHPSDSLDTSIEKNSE

[5] = Half life in wistar rat was determined by intra venous administration of 2:1 PEG200/0.1 M phosphate buffer at 0.1 mL/kg concentration; assay type: ADME; settings: in vivo, iv
[6] = Volume abserved at study state after intra venous administration of 2:1 PEG200/0.1 M phosphate buffer at 0.1 mL/kg concentration in wistar rat; assay type: ADME, organism-based; settings: in vivo, iv, read-out: Vss
[7] = Clearance in wistar rat was determined by intra venous administration of 2:1 PEG200/0.1 M phosphate buffer at 0.1 mL/kg concentration; assay type: ADME, organism-based; settings: in vivo, iv
[8] = Time to reach Cmax after oral administration at 1 mL/kg concentration in wistar rat; assay type: ADME, organism-based; settings: in vivo
[9] = Bioavailability of compound after oral administration at 1 mL/kg concentration in wistar rat; assay type: ADME, organism-based; settings: in vivo, read-out: BAV
[10] = Maximum concentration in wistar rat at 1 mL/kg concentration of compound after oral administration; assay type: ADME, organism-based; design: dose 1 mL/kg, route oral; settings: in vivo
[11] = Half life of trhe compound after oral administration at 1 mL/kg concentration in wistar rat; assay type: ADME, organism-based; settings: in vivo

SMILES	Ki [1]	Ki [2]	Kb [3]	Ki [4]	half-life [5]	Vd [6]	clearance [7]	Tmax [8]	bioavailability [9]	Cmax [10]	half-life [11]
CC(=O)Nc1nc(-c2cccc(C#N)c2)c(-n2cncn2)s1	2.84 µM	5.61 µM	0.365 µM	0.134 µM							
N#Cc1cccc(-c2nc(Nc3ccncc3)sc2-n2cncn2)c1		4.16 µM	0.062 µM	0.304 µM							
N#Cc1cccc(-c2nc(Nc3cnccn3)sc2-n2cncn2)c1	2.09 µM	3.58 µM	0.012 µM								
Cc1cccc(Nc2nc(-c3cccc(C#N)c3)c(-n3cncn3)s2)n1	> 10 µM	> 10 µM	0.02 µM	0.037 µM							
N#Cc1cccc(-c2nc(Nc3cccnc3)sc2-n2ccnc2)c1	0.56 µM	2.7 µM	0.092 µM	0.124 µM							

The remaining molecules from weak to strong by Ki [2], led by results:

Ki [1]	Ki [2]	Kb [3]	Ki [4]	half-life [5]	Vd [6]	clearance [7]	Tmax [8]	bioavailability [9]	Cmax [10]	half-life [11]	SMILES
0.008 µM	2.7 µM	0.092 µM	0.044 µM								Cc1cccc(Nc2nc(-c3cccc(C#N)c3)c(-n3ccnc3)s2)n1
1.53 µM	2.57 µM	0.086 µM	0.698 µM								N#Cc1cccc(-c2nc(Nc3cccnc3)sc2-n2cncn2)c1
1.76 µM	2.02 µM	0.053 µM	0.024 µM								N#Cc1cccc(-c2nc(Nc3ccccn3)sc2-n2cncn2)c1
0.197 µM	1.67 µM	0.003 µM	0.01 µM	29 min	3.02 L/kg	94.4 mL/min/kg	39.3 min	30.2%	560 nM	191 min	Cc1nccn1-c1sc(Nc2cnccn2)nc1-c1cccc(C#N)c1
0.046 µM	0.349 µM	0.007 µM	0.011 µM								N#Cc1cccc(-c2nc(Nc3cnccn3)sc2-n2ccnc2)c1
0.224 µM	0.175 µM	0.01 µM	0.419 µM								Cc1cccc(Nc2nc(-c3cccc(C#N)c3)c(-n3ccnc3C)s2)n1
